Measurements: PubChem BioAssay AID1259407 (Chemical Carcinogenesis Research Information System (CCRIS), 2018)
Activity calls are given as the source filed them. The rule behind the calls is not given here.

System: CCRIS mutagenicity, Ames/micronucleus/aberration tests
Experiment: CCRIS mutagenicity studies

Q: How did the mutagenic call (Test System: AMES SALMONELLA TYPHIMURIUM, Strain/Indicator: TA97, Metabolic Activation: NONE, Method: STANDARD PLATE) turn out when `COc1ccc(CN(CC[N+](C)(C)[O-])c2ccccn2)cc1` was run?
A: inactive; negative

Q: What about the mutagenic call (Test System: AMES SALMONELLA TYPHIMURIUM, Strain/Indicator: TA97, Metabolic Activation: RAT, LIVER, S-9, AROCLOR 1254, Method: STANDARD PLATE) of the same molecule?
A: inactive; negative

Q: What about the mutagenic call (Test System: AMES SALMONELLA TYPHIMURIUM, Strain/Indicator: TA98, Metabolic Activation: NONE, Method: STANDARD PLATE) of the same molecule?
A: inactive; negative

Q: What about the mutagenic call (Test System: AMES SALMONELLA TYPHIMURIUM, Strain/Indicator: TA98, Metabolic Activation: RAT, LIVER, S-9, AROCLOR 1254, Method: STANDARD PLATE) of the same molecule?
A: inactive; negative

Q: What about the mutagenic call (Test System: AMES SALMONELLA TYPHIMURIUM, Strain/Indicator: TA100, Metabolic Activation: NONE, Method: STANDARD PLATE) of the same molecule?
A: inactive; negative

Q: What about the mutagenic call (Test System: AMES SALMONELLA TYPHIMURIUM, Strain/Indicator: TA100, Metabolic Activation: RAT, LIVER, S-9, AROCLOR 1254, Method: STANDARD PLATE) of the same molecule?
A: inactive; negative

Q: What about the mutagenic call (Test System: AMES SALMONELLA TYPHIMURIUM, Strain/Indicator: TA102, Metabolic Activation: NONE, Method: STANDARD PLATE) of the same molecule?
A: inactive; negative

Q: What about the mutagenic call (Test System: AMES SALMONELLA TYPHIMURIUM, Strain/Indicator: TA102, Metabolic Activation: RAT, LIVER, S-9, AROCLOR 1254, Method: STANDARD PLATE) of the same molecule?
A: inactive; negative

Q: For `Clc1ccc(C(Cl)(Cl)Cl)c(Cl)c1`, which mutagenic call (Test System: AMES SALMONELLA TYPHIMURIUM, Strain/Indicator: TA98, Metabolic Activation: HAMSTER, LIVER, S-9, AROCLOR 1254 (30%), Method: PREINCUBATION) is on record?
A: active; positive

Q: What about the mutagenic call (Test System: AMES SALMONELLA TYPHIMURIUM, Strain/Indicator: TA98, Metabolic Activation: NONE, Method: PREINCUBATION) of the same molecule?
A: inactive; negative

Q: What about the mutagenic call (Test System: AMES SALMONELLA TYPHIMURIUM, Strain/Indicator: TA98, Metabolic Activation: RAT, LIVER, S-9, AROCLOR 1254 (30%), Method: PREINCUBATION) of the same molecule?
A: active; positive

Q: And the mutagenic call (Test System: AMES SALMONELLA TYPHIMURIUM, Strain/Indicator: TA100, Metabolic Activation: HAMSTER, LIVER, S-9, AROCLOR 1254 (30%), Method: PREINCUBATION)?
A: active; positive

Q: And the mutagenic call (Test System: AMES SALMONELLA TYPHIMURIUM, Strain/Indicator: TA100, Metabolic Activation: NONE, Method: PREINCUBATION)?
A: inactive; negative

Q: And the mutagenic call (Test System: AMES SALMONELLA TYPHIMURIUM, Strain/Indicator: TA100, Metabolic Activation: RAT, LIVER, S-9, AROCLOR 1254 (30%), Method: PREINCUBATION)?
A: active; positive

Q: Which results are given for `C=C(C)C`?
A: mutagenic call (Test System: AMES SALMONELLA TYPHIMURIUM, Strain/Indicator: TA97, Metabolic Activation: HAMSTER LIVER S-9, AROCLOR 1254 (10% OR 30%), Method: DESICCATOR): inactive; negative; mutagenic call (Test System: AMES SALMONELLA TYPHIMURIUM, Strain/Indicator: TA97, Metabolic Activation: NONE, Method: DESICCATOR): inactive; negative; mutagenic call (Test System: AMES SALMONELLA TYPHIMURIUM, Strain/Indicator: TA97, Metabolic Activation: RAT LIVER S-9, AROCLOR 1254 (10% OR 30%), Method: DESICCATOR): inactive; negative; mutagenic call (Test System: AMES SALMONELLA TYPHIMURIUM, Strain/Indicator: TA98, Metabolic Activation: HAMSTER LIVER S-9, AROCLOR 1254 (10% OR 30%), Method: DESICCATOR): inactive; negative; mutagenic call (Test System: AMES SALMONELLA TYPHIMURIUM, Strain/Indicator: TA98, Metabolic Activation: NONE): inactive; negative; mutagenic call (Test System: AMES SALMONELLA TYPHIMURIUM, Strain/Indicator: TA98, Metabolic Activation: NONE, Method: DESICCATOR): inactive; negative; mutagenic call (Test System: AMES SALMONELLA TYPHIMURIUM, Strain/Indicator: TA98, Metabolic Activation: NONE, Method: GAS EXPOSURE): inactive; negative; mutagenic call (Test System: AMES SALMONELLA TYPHIMURIUM, Strain/Indicator: TA98, Metabolic Activation: RAT LIVER S-9, AROCLOR 1254 (10% OR 30%), Method: DESICCATOR): inactive; negative; mutagenic call (Test System: AMES SALMONELLA TYPHIMURIUM, Strain/Indicator: TA98, Metabolic Activation: RAT LIVER S-9, PHENOBARBITAL AND BETA-NAPHTHOFLAVONE (40%), Method: GAS EXPOSURE): inactive; negative; mutagenic call (Test System: AMES SALMONELLA TYPHIMURIUM, Strain/Indicator: TA98, Metabolic Activation: RAT, LIVER, S-9, KC 500): inactive; negative; mutagenic call (Test System: AMES SALMONELLA TYPHIMURIUM, Strain/Indicator: TA100, Metabolic Activation: HAMSTER LIVER S-9, AROCLOR 1254 (10% OR 30%), Method: DESICCATOR): inactive; negative; mutagenic call (Test System: AMES SALMONELLA TYPHIMURIUM, Strain/Indicator: TA100, Metabolic Activation: NONE): inactive; negative; mutagenic call (Test System: AMES SALMONELLA TYPHIMURIUM, Strain/Indicator: TA100, Metabolic Activation: NONE, Method: DESICCATOR): inactive; negative; mutagenic call (Test System: AMES SALMONELLA TYPHIMURIUM, Strain/Indicator: TA100, Metabolic Activation: NONE, Method: FLASK ASSAY): inactive; negative; mutagenic call (Test System: AMES SALMONELLA TYPHIMURIUM, Strain/Indicator: TA100, Metabolic Activation: NONE, Method: GAS EXPOSURE): inactive; negative; mutagenic call (Test System: AMES SALMONELLA TYPHIMURIUM, Strain/Indicator: TA100, Metabolic Activation: RAT LIVER S-9, AROCLOR 1254 (10% OR 30%), Method: DESICCATOR): inactive; negative; mutagenic call (Test System: AMES SALMONELLA TYPHIMURIUM, Strain/Indicator: TA100, Metabolic Activation: RAT LIVER S-9, PHENOBARBITAL AND BETA-NAPHTHOFLAVONE (40%), Method: GAS EXPOSURE): inactive; negative; mutagenic call (Test System: AMES SALMONELLA TYPHIMURIUM, Strain/Indicator: TA100, Metabolic Activation: RAT, LIVER, S-9, KC 500): inactive; negative; mutagenic call (Test System: AMES SALMONELLA TYPHIMURIUM, Strain/Indicator: TA102, Metabolic Activation: NONE, Method: FLASK ASSAY): inactive; negative; mutagenic call (Test System: AMES SALMONELLA TYPHIMURIUM, Strain/Indicator: TA1535, Metabolic Activation: HAMSTER LIVER S-9, AROCLOR 1254 (10% OR 30%), Method: DESICCATOR): inactive; negative; mutagenic call (Test System: AMES SALMONELLA TYPHIMURIUM, Strain/Indicator: TA1535, Metabolic Activation: NONE): inactive; negative; mutagenic call (Test System: AMES SALMONELLA TYPHIMURIUM, Strain/Indicator: TA1535, Metabolic Activation: NONE, Method: DESICCATOR): inactive; negative; mutagenic call (Test System: AMES SALMONELLA TYPHIMURIUM, Strain/Indicator: TA1535, Metabolic Activation: NONE, Method: FLASK ASSAY): inactive; negative; mutagenic call (Test System: AMES SALMONELLA TYPHIMURIUM, Strain/Indicator: TA1535, Metabolic Activation: NONE, Method: GAS EXPOSURE): inactive; negative; mutagenic call (Test System: AMES SALMONELLA TYPHIMURIUM, Strain/Indicator: TA1535, Metabolic Activation: RAT LIVER S-9, AROCLOR 1254 (10% OR 30%), Method: DESICCATOR): inactive; negative; mutagenic call (Test System: AMES SALMONELLA TYPHIMURIUM, Strain/Indicator: TA1535, Metabolic Activation: RAT LIVER S-9, PHENOBARBITAL AND BETA-NAPHTHOFLAVONE (40%), Method: GAS EXPOSURE): inactive; negative; mutagenic call (Test System: AMES SALMONELLA TYPHIMURIUM, Strain/Indicator: TA1535, Metabolic Activation: RAT, LIVER, S-9, KC 500): inactive; negative; mutagenic call (Test System: AMES SALMONELLA TYPHIMURIUM, Strain/Indicator: TA1537, Metabolic Activation: NONE): inactive; negative; mutagenic call (Test System: AMES SALMONELLA TYPHIMURIUM, Strain/Indicator: TA1537, Metabolic Activation: NONE, Method: GAS EXPOSURE): inactive; negative; mutagenic call (Test System: AMES SALMONELLA TYPHIMURIUM, Strain/Indicator: TA1537, Metabolic Activation: RAT LIVER S-9, PHENOBARBITAL AND BETA-NAPHTHOFLAVONE (40%), Method: GAS EXPOSURE): inactive; negative; mutagenic call (Test System: AMES SALMONELLA TYPHIMURIUM, Strain/Indicator: TA1537, Metabolic Activation: RAT, LIVER, S-9, KC 500): inactive; negative; mutagenic call (Test System: AMES SALMONELLA TYPHIMURIUM, Strain/Indicator: TA1538, Metabolic Activation: NONE): inactive; negative; mutagenic call (Test System: AMES SALMONELLA TYPHIMURIUM, Strain/Indicator: TA1538, Metabolic Activation: RAT, LIVER, S-9, KC 500): inactive; negative; mutagenic call (Test System: E. COLI, Strain/Indicator: WP2 UVRA, Metabolic Activation: NONE): inactive; negative; mutagenic call (Test System: E. COLI, Strain/Indicator: WP2 UVRA, Metabolic Activation: RAT, LIVER, S-9, KC 500): inactive; negative; mutagenic call (Test System: E.COLI, Strain/Indicator: WP2UVRA, Metabolic Activation: NONE, Method: GAS EXPOSURE): inactive; negative; mutagenic call (Test System: E.COLI, Strain/Indicator: WP2UVRA, Metabolic Activation: RAT LIVER S-9, PHENOBARBITAL AND BETA-NAPHTHOFLAVONE (40%), Method: GAS EXPOSURE): inactive; negative
